The record followed here is patent US20240081377A1, “USING ORGANOIDS AND/OR SPHEROIDS TO CULTIVATE MEAT” (Orbillion Bio, Inc., priority 2020, published 2024).

In experiment [1] the test system is spheroids. Briefly: Spheroid expansion (spheroid diameter) following recombinant growth factor treatment. The experiment is classed as cell-based. The note with it: wells 300 μm in diameter, 3 days after treatment. From the text:
FIG. 20A to FIG. 20B illustrates spheroid diameter of cells cultured in wells measuring 900 μm in diameter for 12 days following growth factor treatment with fibroblast growth factor (FGF), hepatocyte growth factor (HGF), and insulin-like growth factor (IGF). More specifically, FIG. 20A depicts spheroid diameter in and FIG. 20B depicts spheroid diameter as a percentage of size increase as compared to control.
FIG. 21A to FIG. 21B depicts spheroid diameter of cells cultured in wells measuring 300 μm in diameter for 12 days following growth factor treatment with fibroblast growth factor (FGF), hepatocyte growth factor (HGF), and insulin-like growth factor (IGF). More specifically, FIG. 21A depicts spheroid diameter in and FIG. 21B depicts spheroid diameter as a percentage of size increase as compared to control.

Experiment [2] has as its system A549 spheroids. The experiment can be described thus: On-chip drug toxicity screening of A549 spheroids (dye exclusion assay, Hoechst / ethidium homodimer-1). Particulars: A549 spheroids of all sizes (300-1000 μm), different concentrations, 24 hours. The experiment is classed as cell-based, human.
Method: A549 cells were seeded at a concentration of 1×10^6 cells per ml and cultivated for three days under standard cell culture conditions under bi-directional flow (e.g. using a rocking device). Stock solutions of 10 mM cisplatin (Sigma-Aldrich, Austria) in DMSO and 10 mM doxorubicin (Sigma-Aldrich, Austria) in PBS were prepared. Doxorubicin and cisplatin were dissolved in cell culture medium to yield concentrations of 0.5, 1, 5, 10, 25, 50 and 500 μM for the treatment of A549 spheroids. Cell culture medium within the channels of the devices was replaced with drug containing medium and incubated for 24 hours prior to cell death analyses. One channel on a separate device was used as an untreated control. […] Raw fluorescence signals were processed and dose-response curves were generated by Sigmoidal-4PL non-linear regression analysis.
Live A549 cell spheroids of different sizes (300 μm, 500 μm, 700 μm, 900 μm, 1000 μm in diameter) were stained with Hoechst; blue and Ethidium homodimer-1; red and treated with different concentrations (100 μM, 10 μM and 1 μM) of CIS, DOX, and CIS:DOX to screen drug toxicity for up to 24 hours following drug treatment. […] Viability of live human A549 cell spheroids of different sizes (measured as a % of the untreated control) was calculated as a function of chemotherapy drug treatment concentration (CIS, DOX, and CIS:DOX). […]

For the compound “HGF: recombinant hepatocyte growth factor”, in experiment [1], the “spheroid diameter, size increase as compared to control” value is recorded as “largest difference”. As for `COc1cccc2c1C(=O)c1c(O)c3c(c(O)c1C2=O)C[C@@](O)(C(=O)CO)C[C@@H]3O[C@H]1C[C@H](N)[C@H](O)[C@H](C)O1` [DOX, Doxorubicin], the “viability of A549 cell spheroids (measured as a % of the untreated control)” value in experiment [2] is “decreased sharply”.
